The values that follow are results of earlier work, collected in patent US20090048319A1, “Method of Using a Micronutrient as Safener for a Triazole for Controlling Harmful Fungi” (priority 2006, published 2009).

Each structure is given as a SMILES string.

This data set relates to wheat. To be noted: in vivo.

Turning to `CC1(C)CC/C(=C\c2ccc(Cl)cc2)C1(O)Cn1cncn1` (stereo not shown) [triticonazole, (5E)-5-[(4-chlorophenyl)methylene]-2,2-dimethyl-1-(1H-1,2,4-triazol-1-ylmethyl)cyclopentanol], the “negative effect on plant growth” value is reported as “strongly reduced longitudinal growth”.
